Key:
Type in all cases: biochemical
μ-calpain = target: T1, μ-calpain (Homo sapiens, UniProt P07384); test: μ-Calpain-inhibitory activity (casein substrate); conditions: 60 minutes at 30° C., pH 7.4, 4 mM calcium chloride
T1 construct: purchased Nakalai Tesque
T1 sequence (P07384 1-714): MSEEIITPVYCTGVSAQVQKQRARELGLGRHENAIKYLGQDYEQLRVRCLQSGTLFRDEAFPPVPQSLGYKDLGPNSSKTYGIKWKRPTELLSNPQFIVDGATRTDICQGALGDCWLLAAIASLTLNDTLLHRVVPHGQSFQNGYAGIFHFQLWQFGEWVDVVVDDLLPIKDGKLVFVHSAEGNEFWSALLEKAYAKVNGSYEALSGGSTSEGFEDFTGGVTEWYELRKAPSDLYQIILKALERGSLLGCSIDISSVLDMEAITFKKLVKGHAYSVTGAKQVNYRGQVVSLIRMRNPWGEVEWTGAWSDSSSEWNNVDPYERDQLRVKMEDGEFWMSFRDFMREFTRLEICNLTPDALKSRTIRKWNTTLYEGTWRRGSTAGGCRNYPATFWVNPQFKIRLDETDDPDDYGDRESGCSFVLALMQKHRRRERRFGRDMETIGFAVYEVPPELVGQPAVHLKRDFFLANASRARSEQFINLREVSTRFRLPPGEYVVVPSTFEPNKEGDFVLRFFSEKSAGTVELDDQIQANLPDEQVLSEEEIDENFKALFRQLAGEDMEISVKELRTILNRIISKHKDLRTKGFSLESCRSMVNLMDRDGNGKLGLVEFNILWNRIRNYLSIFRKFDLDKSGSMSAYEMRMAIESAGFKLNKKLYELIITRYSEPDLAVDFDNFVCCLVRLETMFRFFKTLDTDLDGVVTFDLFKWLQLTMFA
T1 sequence (P04632 1-268 partner): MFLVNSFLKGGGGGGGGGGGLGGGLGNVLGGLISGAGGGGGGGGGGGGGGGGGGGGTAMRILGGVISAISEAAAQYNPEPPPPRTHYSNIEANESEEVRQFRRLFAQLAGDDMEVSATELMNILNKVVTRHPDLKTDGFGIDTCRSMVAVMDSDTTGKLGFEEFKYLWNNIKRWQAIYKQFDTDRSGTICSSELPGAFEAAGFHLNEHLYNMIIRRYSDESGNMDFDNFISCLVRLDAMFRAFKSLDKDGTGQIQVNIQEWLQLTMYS
Protocol: Thus, to a solution containing 0.5 mg/ml casein, 50 mM Tris-HCl (pH 7.4), 20 mM dithiothreitol, and 4 mM calcium chloride was added 2.5 μl of a dimethyl sulfoxide solution containing a varying concentration of the test drug as well as 0.03 unit of μcalpain to initiate the reaction. The final liquid volume was 250 μl. After 60 minutes of reaction at 30° C., 100 μl of the reaction mixture was transferred to another vessel, to which 50 μl of purified water and 100 μl of 50% Coumassie brilliant blue solution were added. […] As a control, 2.5 μl of dimethyl sulfoxide not containing the test drug was added and the mixture was treated in the same manner as above. […] Similarly, the value found by adding 0.2 mM EDTA in lieu of 4 mM aqueous calcium chloride solution was used as the blank value. […] [formula]

cathepsin L = target: T2, cathepsin L (Homo sapiens, UniProt P07711); test: Assay of cathepsin L-inhibitory activity (Z-Phe-Arg-MCA); conditions: 20 minutes at 30° C., pH 5.5
T2 construct: purchased Cosmo Bio
T2 sequence (P07711 114-333, species assumed): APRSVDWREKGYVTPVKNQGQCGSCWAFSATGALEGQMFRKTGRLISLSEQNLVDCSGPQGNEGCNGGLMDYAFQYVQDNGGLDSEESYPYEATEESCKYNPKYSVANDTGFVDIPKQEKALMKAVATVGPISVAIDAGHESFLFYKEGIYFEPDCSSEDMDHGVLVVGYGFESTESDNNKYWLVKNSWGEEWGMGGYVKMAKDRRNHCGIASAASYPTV
Protocol: The activity of cathepsin L (Cosmo Bio), a cysteine protease, was assayed by the method described in the literature [Methods in Enzymology, 80, 535-561, 1981]. Thus, to a solution containing 85 mM acetate buffer (pH 5.5), 2 mM dithiothreitol, 1 mM EDTA, 2 μg cathepsin L, and a varying concentration of the test compound was added 50 μl of 20 μM carbobenzoxy-L-phenylalanyl-L-arginine-4-methylcoumaryl-7-amide (Z-Phe-Arg-MCA) to initiate the reaction at the final liquid volume of 200 μl. After 20 minutes of reaction at 30° C., 20 μl of 1 M Tris-HCl (pH 8.0) was added so as to stop the reaction. The amount of liberated 4-methyl-7-aminocoumarin was determined with a fluorospectrometer at an excitation wavelength of 360 nm and a fluorescent emission wave length of 450 nm. Using the value found without addition of the test drug as control and the value found without addition of the enzyme as blank, IC50 was determined in the same manner as above.

papain = target: T3, papain (Carica papaya, UniProt P00784); test: Assay of papain-inhibitory activity (casein substrate); conditions: 60 minutes at 30° C., pH 8.0
T3 sequence (P00784 134-345): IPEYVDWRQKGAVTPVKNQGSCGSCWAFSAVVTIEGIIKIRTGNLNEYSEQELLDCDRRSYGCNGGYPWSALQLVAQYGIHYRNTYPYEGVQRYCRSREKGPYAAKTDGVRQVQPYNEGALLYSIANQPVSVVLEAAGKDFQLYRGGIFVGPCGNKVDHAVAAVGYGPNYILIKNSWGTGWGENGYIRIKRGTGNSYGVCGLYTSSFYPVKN
Protocol: (§1) The activity of papain which is a cysteine protease and of trypsin (Sigma) which is a serine protease was assayed in accordance with the method described in the literature [Anal. Biochem., 208, 387-392, 1993]. Thus, to a solution containing 0.5 mg/ml casein, 50 mM Tris-HCl (pH 8.0), 20 mM dithiothreitol, and 0.2 mM EDTA was added 2.5 μl of dimethyl sulfoxide containing a varying concentration of the test drug as well as 0.03 unit of papain or trypsin to initiate the reaction. The final liquid volume was adjusted to 250 μl. After 60 minutes of reaction at 30° C., 100 μl of the reaction mixture was transferred to another vessel and following addition of 50 μl of purified water and 100 μl of 50% Coumassie brilliant blue solution, the mixture was allowed to stand at room temperature for 15 minutes. The absorbance of the mixture was then measured at 595 nm. Using the value found similarly by adding 2.5 μl of dimethyl sulfoxide not containing the test drug as control and the value found without addition of the enzyme as blank, IC50 was determined in the same manner as above.

trypsin = target: T4, trypsin (UniProt P00760); test: Assay of trypsin-inhibitory activity (casein substrate); conditions: read-out: Trypsin 50% Inhibitory concentration (IC50); 60 minutes at 30° C., pH 8.0
T4 sequence (P00760 1-246): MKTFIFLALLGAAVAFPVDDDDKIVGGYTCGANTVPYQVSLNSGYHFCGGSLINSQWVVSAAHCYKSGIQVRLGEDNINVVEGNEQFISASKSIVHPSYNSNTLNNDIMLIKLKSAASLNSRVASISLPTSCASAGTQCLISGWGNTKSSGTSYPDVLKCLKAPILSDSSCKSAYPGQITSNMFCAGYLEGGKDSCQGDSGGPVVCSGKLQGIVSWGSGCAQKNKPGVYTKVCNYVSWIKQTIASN
Protocol: as §1

Cc1ccc(S(=O)(=O)N2CCN(C(=O)[C@H](CC(C)C)NC(=O)[C@H]3O[C@@H]3C(=O)O)CC2)cc1 [Compound 16, (2s,3s)-3-[[[[(1s)-1-[[4-(4-methylphenylsulfonyl)-1-piperazinyl]carbonyl]-3-methyl]butyl]amino]carbonyl]oxiranecarboxylic acid]
IC50 (μ-calpain): 0.64 µM
IC50 (cathepsin L): 0.082 µM
IC50 (papain): 0.21 µM
IC50 (trypsin): > 3000 µM

Reference: US6551999B1, “Angiogenesis inhibitor” (Senju Pharmaceutical Co., Ltd., priority 1995, dated 2003)
